Results on 4 compounds are retold here after patent US20100158897A1, “PAI-1 MODULATORS FOR THE TREATMENT OF OCULAR DISORDERS” (ALCON RESEARCH, LTD., priority 2006, published 2010).

A value given as a limit tells only on which side of the number the result lay.

The conditions of data set [1]: cited from earlier work.
Data set [2] relates to PAI-1. The data set can be described thus: PAI-1 ELISA: effect on TGFβ2-induced total PAI-1 protein in HTM cell supernatants. The class given is cell-based, human. Particulars: TGFβ2 5 ng/mL, 24 h. The method, then: FIGS. 9-11 present graphs showing the effect of cilostazol, 3,4-dehydro cilostazol, and cilostamide on TGFβ2-induced (5 ng/mL; 24 h) total PAI-1 protein in supernatants from human trabecular meshwork (HTM) cell lines. Cilostazol was tested against three different HTM cell lines (GTM, NTM470-05, and GTM191-04).
(§1) Human TM cell culture: Human TM cells were isolated from post-mortem human donor tissue, characterized, and cultured as previously described. Generation and characterization of the transformed (GTM-3) cell line was also as previously described (Pang et al., Preliminary characterization of a transformed cell strain derived from human trabecular meshwork., Curr. Eye Res., Vol. 13:51-63, 1994.)
(§2) PAI-1 ELISA: 24-well plates of TM cell cultures were serum-deprived for 24 h followed by an additional 24 h (or as indicated) incubation with TGFβ2 in a serum-free medium. Aliquots of supernatants from the treated cultures were quantified for secreted PAI-1 content by means of human PAI-1 ELISA kit (American Diagnostica).

The subject of data set [3] is PAI-1. To be noted: non-ocular tissues of rats; cited from earlier work.
Data set [4] relates to intraocular pressure (IOP). The data set can be described thus: Ad.TGFβ2-induced ocular hypertension in mice, topical ocular administration. The class given is in vivo. Particulars: conscious mice, rebound tonometer. The method, then: FIGS. 12a-12b are graphs showing the effect of topical ocular administration of various concentrations of cilostazol compared to control on Ad.TGFβ2-induced ocular hypertension in mice. Ad.TGFβ2 viral vector was injected on Day 0. Dosing with Cilostazol or vehicle was performed on the indicated days (denoted by horizontal bars). Intraocular pressure (IOP) was monitored in conscious mice using a rebound tonometer.

In data set [5] the test system is retinal ganglion cells. Particulars: post-axotomy; cited from earlier work.
Data set [6] relates to optic nerve head and retina. Particulars: in vivo; cited from earlier work.
The subject of data set [7] is PAI-1. In words: PAI-1 ELISA: TGFβ2 effect on PAI-1 levels in GTM-3 cell supernatants. The class given is cell-based, human. Particulars: GTM-3 cells. The method, then: PAI-1 mediated effects may contribute to the previously observed TGFβ2-mediated accumulation of extracellular matrix materials in various tissues, including TM tissues. […] TGFβ2-treatment results in both concentration-dependent and time-dependent accumulation of PAI-1 in TM cell supernatants (FIGS. 1 and 2). PAI-1 levels increase gradually in response to TGFβ2, reaching a constant level at approximately 24 h post-treatment.
as §1, §2

For data set [8], the system named is human TM cells (GTM-3, GTM730). The data set can be described thus: TM cell adhesion to vitronectin substrate (InnoCyte ECM Cell Adhesion Assay). Format: cell-based. Particulars: TGFβ2 5 ng/mL, 2 hr, GTM-3 and GTM730 cells. The method, then:
as §1
TM cell adhesion: TM cell adhesion was determined by means of InnoCyte ECM Cell Adhesion Assay (Calbiochem). TM cells (20,000/well; serum-free medium) were plated onto a vitronectin-coated 96-well plate. Test agents were then added, followed by incubation in a cell culture incubator for the times indicated. Non-adherent cells were then removed by decantation and gentle wash of the wells with PBS. Relative cell attachment was determined by means of fluorescent dye (calcein-AM) uptake.

Turning to `O=c1ccc2cc(OCCCCc3nnnn3C3CCCCC3)ccc2[nH]1` [3,4-dehydro cilostazol, 3,4-dehydro-cilostazol], the “share of total activity attributed to cilostazol” value in data set [1] (may account for) is recorded as no less than 50%. Besides, the “activity relative to cilostazol” value in data set [1] (reportedly) was 4-7 fold. Also, the “effect on TGFβ2-induced total PAI-1 protein in supernatants” value (“effect … in supernatants” below) in data set [2] (GTM-3 HTM cells, FIGS. 10-11) was “dose-dependent inhibitory effect”.
Regarding `CN(C(=O)CCCOc1ccc2[nH]c(=O)ccc2c1)C1CCCCC1` [cilostamide, Cilostamide], in data set [2] (GTM-3 HTM cells, FIGS. 10-11), the “effect … in supernatants” value is recorded as “dose-dependent inhibitory effect”.
On to `O=C1CCc2cc(OCCCCc3nnnn3C3CCCCC3)ccc2N1` [cilostazol, Cilostazol], for which the “TGFβ2 and PAI-1 protein expression and PAI-1 activity” value in data set [3] is listed as “suppresses”. Moreover, the “IOP-lowering effect relative to control (Maxidex vehicle)” value in data set [4] (0.3% cilostazol formulation) and in data set [4] (1.0% cilostazol formulation) was “substantial IOP-lowering effects” throughout. The “survival of retinal ganglion cells” value in data set [5] is given as “increase the survival of retinal ganglion cells”. In addition, in data set [6], the “blood flow to the optic nerve head and retina” value is “enhance blood flow”. Also, in data set [2] (three HTM cell lines (GTM, NTM470-05, GTM191-04), FIGS. 9a-9c), the “effect … in supernatants” value is reported as “dose-dependent inhibitory effect”.
“TGFβ2: cytokine transforming growth factor β2”: the “time to constant PAI-1 level post-treatment” value in data set [7] (TGFβ2 5 ng/mL) was “approximately 24 h”. Besides, in data set [7] (concentration- and time-dependent), the “PAI-1 content in trabecular meshwork cell cultures” value is reported as “increases the PAI-1 content”. For the same compound, the “effect on TM cell adhesion compared to controls” value in data set [8] was “did not experience measurable loss of adhesion”.
